These results are taken from paper PMC12027149 (International Journal of Molecular Sciences, 2025).

SMILES strings stand for the structures. Several values for one entry are separate records, joined by “and”; a condition that tells them apart may be missing. Equal entries are not always repeated. Where two headings read alike, the source gives them in different places.

The nature of data set [1]: MTT cytotoxicity assay on differentiated SH-SY5Y cells. It is filed as cell-based, human. The note with it: human, 0.05–5 mM; for CC50 at 24 h: differentiated SH-SY5Y, MTT reduction assay, Hill fit, read-out: LC50. As to the method:
(§1) The SH–SY5Y cell line (DSMZ code: ACC 209) was supplied by the German Collection of Microorganisms and the Cell Culture GmbH (DSMZ) biobank and was cultured according to the supplier’s information. Cells were grown in DMEM:F12 (Dulbecco’s Modified Eagle’s Medium/F12), supplemented with 10% fetal bovine serum (FBS) and 1% antibiotic–antimycotic in a humidified atmosphere with 5% CO2 at 37 °C. Subculture was performed according to biobank instructions when the cultures reached 80–85% of confluence.
(§2) SH-SY5Y cells were trypsinized (trypsin/EDTA; 0.25%) and the cell suspension was seeded in 96-well plates at a density of 2 × 10^4 cells/well and incubated until reaching 80-85% confluence. Cells were differentiated to obtain a dopaminergic neuronal phenotype according to Ferreira et al. with slight modifications (Figure 10). To ensure reproducibility and optimal neuronal differentiation, cells were used between passages (15–25). Briefly, cells were seeded in complete DMEM:F12 medium containing 10 µM retinoic acid (RA) and 2.5% fetal bovine serum (FBS) and maintained for 4 days, with the medium changed on day 2. After this time, the medium was replaced by DMEM:F12 supplemented with 10 µM RA, 80 nM 12-O-tetradecanoylphorbol-13-acetate (TPA), and 2.5% FBS, and the cells were maintained for an additional 4 days (with the medium changed at day 6). The cytotoxicity assay was performed on day 8.
(§3) The SH-SY5Y cells’ viability was evaluated after exposure for 24 h to […]. The 3-(4,5-dimethylthiazol-2-yl) − 2,5-diphenyltetrazolium bromide (MTT) colorimetric assay was performed following the methodology described by Joana Silva et al.. The experimental dose–response results were fitted to the Hill’s sigmoidal non-linear regression model. For each cathinone, the LC50 values (cathinone concentration showing 50% lethality) and their confidence interval at the 95% confidence level ([CI]) were determined. The Hill slope, also known as the Hill coefficient, which describes the steepness of a dose–response curve, and the minimum observable adverse effect concentration (LOAEL) were also determined for all cathinones.

Data set [2] has as its system differentiated SH-SY5Y cells. The data set is described as above. In kind it is cell-based, human. The note with it: lowest observed adverse effect level, differentiated SH-SY5Y, 24 h, MTT. The protocol: as §1, §2, §3
In data set [3] the target is T1, Acetylcholinesterase (AChE, EC 3.1.1.7) (Electrophorus electricus, UniProt O42275).
T1 construct: purchased Sigma-Aldrich
T1 sequence (O42275 24-633): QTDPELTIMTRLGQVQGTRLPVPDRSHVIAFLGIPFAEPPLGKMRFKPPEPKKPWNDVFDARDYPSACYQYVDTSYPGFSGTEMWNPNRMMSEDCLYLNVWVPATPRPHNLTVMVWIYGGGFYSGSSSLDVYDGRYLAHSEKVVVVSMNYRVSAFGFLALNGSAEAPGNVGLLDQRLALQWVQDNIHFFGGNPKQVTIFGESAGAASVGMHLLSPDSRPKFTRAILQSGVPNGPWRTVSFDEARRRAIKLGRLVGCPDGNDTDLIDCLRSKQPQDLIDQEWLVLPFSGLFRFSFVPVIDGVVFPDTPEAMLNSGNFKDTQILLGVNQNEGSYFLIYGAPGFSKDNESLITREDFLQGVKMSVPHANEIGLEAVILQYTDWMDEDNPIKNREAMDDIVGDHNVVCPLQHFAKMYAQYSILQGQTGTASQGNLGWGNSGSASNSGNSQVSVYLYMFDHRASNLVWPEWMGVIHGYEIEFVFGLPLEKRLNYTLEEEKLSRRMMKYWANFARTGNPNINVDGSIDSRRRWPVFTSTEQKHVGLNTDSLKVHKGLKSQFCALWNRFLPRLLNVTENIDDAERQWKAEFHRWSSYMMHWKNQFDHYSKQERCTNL
Briefly: Acetylcholinesterase inhibition, modified Ellman colorimetric method. In kind it is biochemical. The note with it: for Hillslope: AChE inhibition dose–response curve; for LOAEL / IC50: Ellman assay; for IC50: 0.03–2 mM, Hill fit; for maximum inhibition of AChE among the tested concentrations: 0.03 to 2 mM. The protocol: Acetylcholinesterase (AChE, EC 3.1.1.7) enzymatic activity was assessed using a modified version of Ellman’s colorimetric method, as described by Falé et al.. In this assay, a mixture of 325 μL of 50 mM Tris-HCl buffer (pH 8), 100 μL of a cathinone solution, and 25 μL of AChE (0.1 U/mL in 50 mM Tris–HCl buffer pH 8) were incubated. After a 15 min incubation period, 75 μL of AChI (0.33 mg/mL) was added to 475 μL of DTNB (dithiobis (2-nitrobenzoic acid)) (1.2 mg/mL in Tris–HCl buffer (pH 8) containing 0.1 M NaCl and 0.02 M MgCl2). A control reaction, representing 100% activity, was performed using the same volume of water instead of the cathinone solution. The initial velocity of the enzymatic reaction was measured at 405 nm for 5 min, with all assays carried out in duplicate. The percentage of AChE activity inhibition for different concentrations of cathinones [0.03–2 mM] was determined as the ratio of the initial velocity in the cathinone presence to the initial velocity of the control reaction. Experimental results were fitted to Hill’s sigmoidal dose–response non-linear regression model to determine IC50 values (cathinone concentration showing 50% inhibition), along with their confidence interval at the 95% confidence level ([CI]). The Hill slope coefficients that provide the steepest value of the slope of the dose–response curve and the minimum observable adverse effect concentration (LOAEL) for all cathinones were also determined.

As usually defined, the LOAEL is the lowest dose or exposure tested at which an adverse effect was seen. As usually defined, the IC50 is the concentration needed to halve the response being measured. Consider `CC(C(=O)c1ccccc1Cl)N(C)C` (racemic) [2-CDC (12), (R,S)-1-(2-chlorophenyl)-2-(dimethylamino)propan-1-one], for which, in data set [1], the CC50 at 24 h came out at 1300 µM. Moreover, the lowest observed adverse effect level (LOAEL) in data set [2] is 1 mM and 1.0 mM; in data set [3] (AChE inhibition), 0.250 mM. For the same compound, the Hillslope in data set [3] turned out to be 2.5. In data set [3] (IC50, AChE inhibition), this compound had a 50% inhibitory concentration (IC50) of 700 µM.
`CCNC(C)C(=O)c1ccccc1Cl` (racemic) [2-CEC (4), (R,S)-1-(2-chlorophenyl)-2-(ethylamino)propan-1-one]: in data set [1], the CC50 at 24 h turned out to be 1600 µM. Also, in data set [2], the lowest observed adverse effect level (LOAEL) was 0.5 mM. Also, in data set [3], the “maximum inhibition of AChE among the tested concentrations” value is given as 85% and the Hillslope is given as 4.3. Besides, in data set [3] (AChE inhibition), the lowest observed adverse effect level (LOAEL) was found to be 0.500 mM. In data set [3] (IC50, AChE inhibition), 600 µM corresponded to half-maximal inhibition (IC50).
For the compound `CNC(C)C(=O)c1ccccc1Cl` (racemic) [2-CMC (1), (R,S)-1-(2-chlorophenyl)-2-(methylamino)propan-1-one], the CC50 at 24 h in data set [1] was 1700 µM. In addition, the LOAEL in data set [2] was 1 mM and 1.0 mM; in data set [3] (AChE inhibition), 0.250 mM. In data set [3], this compound yielded a Hillslope of 2.5. In data set [3] (IC50, AChE inhibition), this compound returned a 50% inhibitory concentration (IC50) of 700 µM.
Regarding `CC(C(=O)c1ccccc1Cl)N1CCCC1` (racemic) [2-Cl-PPP (9), (R,S)-1-(2-chlorophenyl)-2-(pyrrolidine-1-yl)propan-1-one], in data set [1], the CC50 at 24 h was found to be 1600 µM. The lowest observed adverse effect level (LOAEL) in data set [2] was found to be 0.5 mM; in data set [3] (AChE inhibition), 0.125 mM. In addition, the “maximum inhibition of AChE among the tested concentrations” value in data set [3] worked out at 81%. In data set [3], this compound had a Hillslope of 1.5. The compound further showed an IC50 in data set [3] (IC50, AChE inhibition) of 300 µM.
With `CC(C(=O)c1cccc(Cl)c1)N(C)C` (racemic) [3-CDC (13), (R,S)-1-(3-chlorophenyl)-2-(dimethylamino)propan-1-one], the CC50 at 24 h in data set [1] came out at 1800 µM. For the same compound, the LOAEL in data set [2] was 1 mM and 1.0 mM; in data set [3] (AChE inhibition), 0.250 mM. The Hillslope in data set [3] was 1.2. Further, in data set [3] (IC50, AChE inhibition), half-maximal inhibition (IC50) required 900 µM.
As for `CCNC(C)C(=O)c1cccc(Cl)c1` (racemic) [3-CEC (5), (R,S)-1-(3-chlorophenyl)-2-(ethylamino)propan-1-one], the CC50 at 24 h in data set [1] was found to be 1300 µM. The results for the LOAEL in data set [2] and in data set [3] (AChE inhibition) were 0.5 mM and 0.250 mM, respectively. The Hillslope in data set [3] stood at 1.3. Moreover, the IC50 in data set [3] (IC50, AChE inhibition) amounted to 800 µM.
In the case of `CC(C)NC(C)C(=O)c1cccc(Cl)c1` (racemic) [3-CIC (17), (R,S)-1-(3-chlorophenyl)-2-(isopropylamino)propan-1-one], in data set [1], the CC50 at 24 h turned out to be 1600 µM. The LOAEL in data set [2] was 1 mM and 1.0 mM; in data set [3] (AChE inhibition), 0.063 mM. Moreover, the Hillslope in data set [3] came out at 0.8. 200 µM corresponded to half-maximal inhibition in data set [3] (IC50, AChE inhibition) (IC50).
With `CNC(C)C(=O)c1cccc(Cl)c1` (racemic) [3-CMC (2), (R,S)-1-(3-chlorophenyl)-2-(methylamino)propan-1-one], the CC50 at 24 h in data set [1] is 2300 µM. Besides, the LOAEL in data set [2] was 1 mM and 1.0 mM; in data set [3] (AChE inhibition) it was 0.500 mM. This compound also displayed a Hillslope in data set [3] of 3.7. In data set [3] (IC50, AChE inhibition), this compound had an IC50 of 800 µM.
For `CC(C(=O)c1cccc(Cl)c1)N1CCCC1` (racemic) [3-Cl-PPP (10), (R,S)-1-(3-chlorophenyl)-2-(pyrrolidine-1-yl)propan-1-one], the CC50 at 24 h in data set [1] was determined as 2500 µM. The values for the lowest-observed-adverse-effect level (LOAEL) in data set [2] and in data set [3] (AChE inhibition) were 0.1 mM and 0.125 mM, respectively. Also, the Hillslope in data set [3] came out at 1.8. This compound also gave a half-inhibitory concentration (IC50) in data set [3] (IC50, AChE inhibition) of 400 µM.
As for `CC(NC(C)(C)C)C(=O)c1cccc(Cl)c1` (racemic) [3-Cl-TBC (19), (R,S)-2-(tert-butylamino)-1-(3-chlorophenyl)propan-1-one], the CC50 at 24 h in data set [1] came to 1000 µM. Moreover, the lowest-observed-adverse-effect level (LOAEL) in data set [2] turned out to be 0.5 mM; in data set [3] (AChE inhibition), 0.250 mM. Moreover, the Hillslope in data set [3] is recorded as 0.9. Also, the 50% inhibitory concentration (IC50) in data set [3] (AChE inhibition, read-out: IC50) amounted to 1000 µM.
On to `CC(C(=O)c1ccc(Cl)cc1)N(C)C` (racemic) [4-CDC (14), (R,S)-1-(4-chlorophenyl)-2-(dimethylamino)propan-1-one], for which, in data set [1], the CC50 at 24 h was 1500 µM. The LOAEL in data set [2] was 1 mM and 1.0 mM; in data set [3] (AChE inhibition), 0.500 mM and 0.50 mM. This compound gave a Hillslope in data set [3] of 2.9. Moreover, in data set [3] (IC50, AChE inhibition), the IC50 turned out to be 700 µM.
Take `CCNC(C)C(=O)c1ccc(Cl)cc1` (racemic) [4-CEC (6), (R,S)-1-(4-chlorophenyl)-2-(ethylamino)propan-1-one]: the CC50 at 24 h in data set [1] was 1300 µM. Moreover, the values for the lowest observed adverse effect level (LOAEL) in data set [2] and in data set [3] (AChE inhibition) were 0.1 mM and 0.250 mM, respectively. The compound also gave a Hillslope in data set [3] of 1.2. Besides, the midpoint of inhibition in data set [3] (IC50, AChE inhibition), the IC50, lay at 1200 µM.
With `CC(C)NC(C)C(=O)c1ccc(Cl)cc1` (racemic) [4-CIC (18), (R,S)-1-(4-chlorophenyl)-2-(isopropylamino)propan-1-one], the CC50 at 24 h in data set [1] was 1400 µM. The LOAEL in data set [2] is 1 mM and 1.0 mM; in data set [3] (AChE inhibition) it was 0.375 mM. This compound had a Hillslope in data set [3] of 2.0. This compound also showed an IC50 in data set [3] (IC50, AChE inhibition) of 1100 µM.
By inhibition is commonly meant the drop in the measured response relative to a control, in per cent. For `CNC(C)C(=O)c1ccc(Cl)cc1` (racemic) [4-CMC (3), (R,S)-1-(4-chlorophenyl)-2-(methylamino)propan-1-one], the CC50 at 24 h in data set [1] turned out to be 1300 µM. For the same compound, the values for the LOAEL in data set [2] and in data set [3] (AChE inhibition) were 0.1 mM and 0.250 mM, respectively. Further, the Hillslope in data set [3] is on record as 1.5. This compound also registered an IC50 in data set [3] (IC50, AChE inhibition) of about 2000 µM. The compound also gave an inhibition at 2000 µM in data set [3] (highest tested concentration of 2 mM) of 47%.
Turning to `CCN(CC)C(C)C(=O)c1ccc(Cl)cc1` (racemic) [4-Cl-DEC (16), (R,S)-1-(4-chlorophenyl)-2-(diethylamino)propan-1-one], the CC50 at 24 h in data set [1] stood at 1000 µM. Besides, the LOAEL in data set [2] is 1 mM and 1.0 mM; in data set [3] (AChE inhibition) it was 0.063 mM. The Hillslope in data set [3] stood at 0.8. In addition, the IC50 in data set [3] (IC50, AChE inhibition) amounted to 100 µM.
Consider `CC(C(=O)c1ccc(Cl)cc1)N1CCCC1` (racemic) [4-Cl-PPP (11), (R,S)-1-(4-chlorophenyl)-2-(pyrrolidine-1-yl)propan-1-one], for which the CC50 at 24 h in data set [1] turned out to be 1800 µM. For the same compound, the LOAEL in data set [2] is on record as 0.5 mM; in data set [3] (AChE inhibition) it was 0.250 mM. This compound had a Hillslope in data set [3] of 1.1. In data set [3] (IC50, AChE inhibition), inhibition was half-maximal at 500 µM (IC50).
Regarding `CNC(C)C(=O)c1ccc(C)cc1` (centres unmarked) [Mephedrone (M), Mephedrone, reference compound], the Emax at 24 h in data set [1] (MTT, read-out: maximum response (cytotoxicity)) turned out to be 73%. For the same compound, the CC50 at 24 h in data set [1] came out at 2100 µM. In addition, the LOAEL in data set [2] is 0.5 mM; in data set [3] (AChE inhibition), 0.750 mM. Further, in data set [3], the Hillslope is listed as 8.6. In data set [3] (IC50, AChE inhibition), this compound returned an IC50 of 800 µM.
